Assay results taken from ChEMBL document CHEMBL1141509, “Development of pyridopyrimidines as potent Akt1/2 inhibitors” (Bioorg Med Chem Lett, 2008).

Experiments:
[1] = target: T1, RAC-alpha serine/threonine-protein kinase (Homo sapiens, UniProt P31749); assay: Inhibition of Akt1
[2] = target: T2, RAC-beta serine/threonine-protein kinase (Homo sapiens, UniProt P31751); assay: Inhibition of Akt2
[3] = target: T1, RAC-alpha serine/threonine-protein kinase; assay: Inhibition of human Akt1 in human C33A cells by immunoprecipitation kinase assay; type: cell-based, C-33-A
[4] = target: T2, RAC-beta serine/threonine-protein kinase; assay: Inhibition of Akt2 in human C33A cells by immunoprecipitation kinase assay; type: cell-based, C-33-A
[5] = target: RAC-gamma serine/threonine-protein kinase (Homo sapiens, UniProt Q9Y243); assay: Inhibition of Akt3
Sequence of RAC-gamma serine/threonine-protein kinase (Q9Y243 whole entry): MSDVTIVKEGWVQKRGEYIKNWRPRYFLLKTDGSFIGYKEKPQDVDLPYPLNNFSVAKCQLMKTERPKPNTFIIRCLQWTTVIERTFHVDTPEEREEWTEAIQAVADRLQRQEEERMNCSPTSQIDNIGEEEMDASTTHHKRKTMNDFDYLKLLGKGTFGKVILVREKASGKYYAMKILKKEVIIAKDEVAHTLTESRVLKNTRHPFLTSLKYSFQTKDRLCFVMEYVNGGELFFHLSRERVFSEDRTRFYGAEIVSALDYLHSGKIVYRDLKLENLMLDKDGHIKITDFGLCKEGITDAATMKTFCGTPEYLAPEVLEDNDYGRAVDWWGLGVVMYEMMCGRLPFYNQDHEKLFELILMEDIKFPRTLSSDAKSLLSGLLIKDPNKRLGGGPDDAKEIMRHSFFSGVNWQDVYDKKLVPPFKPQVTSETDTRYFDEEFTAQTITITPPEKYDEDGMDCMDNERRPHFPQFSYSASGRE

[6] = Inhibition of PKC
[7] = Inhibition of PKA
[8] = target: T3, Serine/threonine-protein kinase Sgk1 (Homo sapiens, UniProt O00141); assay: Inhibition of SGK
T3 sequence (O00141 whole entry): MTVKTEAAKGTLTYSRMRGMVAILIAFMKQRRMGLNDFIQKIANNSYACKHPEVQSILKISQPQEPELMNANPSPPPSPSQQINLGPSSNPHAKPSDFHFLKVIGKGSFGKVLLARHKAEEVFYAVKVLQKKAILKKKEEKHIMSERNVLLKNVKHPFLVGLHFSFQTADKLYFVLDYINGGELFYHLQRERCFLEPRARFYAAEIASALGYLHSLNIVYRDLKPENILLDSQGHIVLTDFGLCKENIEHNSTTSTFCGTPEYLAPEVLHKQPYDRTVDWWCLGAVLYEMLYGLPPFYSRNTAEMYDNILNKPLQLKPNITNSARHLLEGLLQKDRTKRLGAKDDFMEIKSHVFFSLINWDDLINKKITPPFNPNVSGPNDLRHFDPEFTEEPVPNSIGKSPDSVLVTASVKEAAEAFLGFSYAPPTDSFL

T1 sequence (P31749 whole entry): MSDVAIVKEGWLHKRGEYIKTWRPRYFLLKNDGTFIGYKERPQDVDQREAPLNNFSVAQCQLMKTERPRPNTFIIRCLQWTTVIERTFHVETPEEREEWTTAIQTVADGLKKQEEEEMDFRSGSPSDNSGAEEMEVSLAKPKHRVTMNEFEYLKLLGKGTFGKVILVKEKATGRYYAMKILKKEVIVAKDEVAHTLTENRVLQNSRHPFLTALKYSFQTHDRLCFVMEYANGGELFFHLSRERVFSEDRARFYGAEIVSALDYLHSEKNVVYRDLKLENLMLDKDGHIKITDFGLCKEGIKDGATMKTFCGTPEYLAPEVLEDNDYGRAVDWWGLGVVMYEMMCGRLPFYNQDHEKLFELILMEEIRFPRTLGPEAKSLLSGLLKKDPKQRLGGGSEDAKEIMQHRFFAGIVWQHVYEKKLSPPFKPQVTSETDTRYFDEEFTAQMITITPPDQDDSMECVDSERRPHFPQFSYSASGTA
T2 sequence (P31751 whole entry): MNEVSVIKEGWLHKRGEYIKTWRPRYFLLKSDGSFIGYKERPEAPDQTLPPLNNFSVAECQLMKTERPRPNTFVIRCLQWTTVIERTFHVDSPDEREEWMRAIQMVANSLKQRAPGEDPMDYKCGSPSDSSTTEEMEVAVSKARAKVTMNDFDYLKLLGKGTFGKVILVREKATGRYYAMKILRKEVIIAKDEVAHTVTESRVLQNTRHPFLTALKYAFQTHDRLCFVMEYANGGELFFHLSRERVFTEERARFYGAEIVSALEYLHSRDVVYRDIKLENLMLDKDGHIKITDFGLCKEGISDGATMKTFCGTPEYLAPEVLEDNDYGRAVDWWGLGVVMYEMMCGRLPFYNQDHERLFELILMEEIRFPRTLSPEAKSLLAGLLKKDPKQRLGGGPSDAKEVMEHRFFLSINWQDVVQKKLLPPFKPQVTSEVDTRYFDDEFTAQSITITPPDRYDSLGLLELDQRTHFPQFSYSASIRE

Row | SMILES | IC50 [1] | IC50 [2] | IC50 [3] | IC50 [4] | IC50 [5] | IC50 [6] | IC50 [7] | IC50 [8]
1 | CSc1ncc2cc(-c3ccccc3)c(-c3ccc(CN4CCC(NC(=O)CNC(C)=O)CC4)cc3)nc2n1 | 286 nM | 5130 nM | – | – | – | – | – | –
2 | NC(=O)c1ncc2cc(-c3ccccc3)c(-c3ccc(CN4CCC(c5nnc(-c6ccccn6)[nH]5)CC4)cc3)nc2n1 | 6.2 nM | 35 nM | 96.4 nM | 3710 nM | – | – | – | –
3 | CSc1ncc2cc(-c3ccccc3)c(-c3ccc(CN4CCC(c5nnc(N)s5)CC4)cc3)nc2n1 | 8.5 nM | 267 nM | 79 nM | 1570 nM | – | – | – | –
4 | CSc1ncc2cc(-c3ccccc3)c(-c3ccc(CNCCc4cccnc4)cc3)nc2n1 | 90 nM | 1160 nM | – | – | – | – | – | –
5 | CSc1ncc2cc(-c3ccccc3)c(-c3ccc(CN4CCC(C(=O)Nc5ccncc5)CC4)cc3)nc2n1 | 9.7 nM | 301 nM | 133 nM | 1130 nM | – | – | – | –
6 | CSc1ncc2cc(-c3ccccc3)c(-c3ccc(CN4CCC(n5ncc6c(N)ncnc65)CC4)cc3)nc2n1 | 4 nM | 44 nM | 60 nM | 828 nM | – | – | – | –
7 | CSc1ncc2cc(-c3ccccc3)c(-c3ccc(CNCCCN4CCN(C)CC4)cc3)nc2n1 | 765 nM | 8920 nM | – | – | – | – | – | –
8 | CSc1ncc2cc(-c3ccccc3)c(-c3ccc(CNCCC(N)=O)cc3)nc2n1 | 226 nM | 1300 nM | – | – | – | – | – | –
9 | CSc1ncc2cc(-c3ccccc3)c(-c3ccc(CN4CCC(c5nc(-c6cccnc6)no5)CC4)cc3)nc2n1 | 64 nM | 1300 nM | – | – | – | – | – | –
10 | CSc1ncc2cc(-c3ccccc3)c(-c3ccc(CNCCc4nccs4)cc3)nc2n1 | 198 nM | 1380 nM | – | – | – | – | – | –
11 | CSc1ncc2cc(-c3ccccc3)c(-c3ccc(CN4CCC(C(=O)NCCC(N)=O)CC4)cc3)nc2n1 | 91 nM | 2110 nM | – | – | – | – | – | –
12 | Nc1ncnc2nc(-c3ccc(CN4CCC(c5nc6ccc(F)cc6[nH]5)CC4)cc3)c(-c3ccccc3)cc12 | – | 239 nM | – | 1810 nM | – | – | – | –
13 | Nc1ncnc2nc(-c3ccc(CN4CCC(n5ncc6c(N)ncnc65)CC4)cc3)c(-c3ccccc3)cc12 | 14 nM | 99 nM | 295 nM | 468 nM | – | – | – | –
14 | CSc1ncc2cc(-c3ccccc3)c(-c3ccc(CN4CCC(c5cc(-c6ccncc6)[nH]n5)CC4)cc3)nc2n1 | 4.5 nM | 57 nM | 85 nM | 635 nM | – | – | – | –
15 | CSc1ncc2cc(-c3ccccc3)c(-c3ccc(CNCCc4c[nH]cn4)cc3)nc2n1 | 99 nM | 1240 nM | – | – | – | – | – | –
16 | CSc1ncc2cc(-c3ccccc3)c(-c3ccc(CNCCc4nnc(C)[nH]4)cc3)nc2n1 | 162 nM | 1790 nM | – | – | – | – | – | –
17 | CSc1ncc2cc(-c3ccccc3)c(-c3ccc(CN4CCC(c5nnc(-c6ccccn6)[nH]5)CC4)cc3)nc2n1 | 3.8 nM | 26 nM | 9.3 nM | 589 nM | – | – | – | –
18 | CCNC(=O)NC1CCN(Cc2ccc(-c3nc4nc(SC)ncc4cc3-c3ccccc3)cc2)CC1 | 81 nM | 1910 nM | 795 nM | 5300 nM | – | – | – | –
19 | CSc1ncc2cc(-c3ccccc3)c(-c3ccc(CNCCC(=O)c4ccccc4N)cc3)nc2n1 | 15 nM | 90 nM | – | – | – | – | – | –
20 | CSc1ncc2cc(-c3ccccc3)c(-c3ccc(CNCCc4nc[nH]n4)cc3)nc2n1 | 139 nM | 1710 nM | – | – | – | – | – | –
21 | CSc1ncc2cc(-c3ccccc3)c(-c3ccc(CNCCCn4ccnc4)cc3)nc2n1 | 137 nM | 1510 nM | – | – | – | – | – | –
22 | CSc1ncc2cc(-c3ccccc3)c(-c3ccc(CN4CCC(C(N)=O)CC4)cc3)nc2n1 | 29 nM | 928 nM | 560 nM | 9260 nM | – | – | – | –
23 | COc1ncc2cc(-c3ccccc3)c(-c3ccc(CN4CCC(c5nnc(-c6ccccn6)[nH]5)CC4)cc3)nc2n1 | 23.6 nM | 107 nM | 42.6 nM | 2300 nM | – | – | – | –
24 | CSc1ncc2cc(-c3ccccc3)c(-c3ccc(CN(C)CCc4cn[nH]c4)cc3)nc2n1 | 1520 nM | 17500 nM | – | – | – | – | – | –
25 | CNc1ncc2cc(-c3ccccc3)c(-c3ccc(CN4CCC(c5nnc(-c6ccccn6)[nH]5)CC4)cc3)nc2n1 | 6 nM | 94.4 nM | 20.3 nM | 899 nM | 2470 nM | > 50000 nM | > 50000 nM | > 50000 nM
26 | CSc1ncc2cc(-c3ccccc3)c(-c3ccc(CNCCc4nnc(-c5ccccc5)[nH]4)cc3)nc2n1 | 63 nM | 494 nM | – | – | – | – | – | –
27 | CSc1ncc2cc(-c3ccccc3)c(-c3ccc(CNCCc4nnc(N)s4)cc3)nc2n1 | 46 nM | 529 nM | – | – | – | – | – | –
28 | N#Cc1ncc2cc(-c3ccccc3)c(-c3ccc(CN4CCC(c5nnc(-c6ccccn6)[nH]5)CC4)cc3)nc2n1 | 24 nM | 59 nM | 100 nM | 586 nM | – | – | – | –
